US8389557B2, “Triazole derivatives useful as Axl inhibitors” (Rigel Pharmaceuticals, Inc., priority 2005, dated 2013)
Structures can show the parent of a compound that is named as a salt.

Molecular target: T1, Axl (Homo sapiens, UniProt P30530)
T1 construct: endogenous in cells; host or cells: HeLa cells
T1 sequence (P30530 26-894): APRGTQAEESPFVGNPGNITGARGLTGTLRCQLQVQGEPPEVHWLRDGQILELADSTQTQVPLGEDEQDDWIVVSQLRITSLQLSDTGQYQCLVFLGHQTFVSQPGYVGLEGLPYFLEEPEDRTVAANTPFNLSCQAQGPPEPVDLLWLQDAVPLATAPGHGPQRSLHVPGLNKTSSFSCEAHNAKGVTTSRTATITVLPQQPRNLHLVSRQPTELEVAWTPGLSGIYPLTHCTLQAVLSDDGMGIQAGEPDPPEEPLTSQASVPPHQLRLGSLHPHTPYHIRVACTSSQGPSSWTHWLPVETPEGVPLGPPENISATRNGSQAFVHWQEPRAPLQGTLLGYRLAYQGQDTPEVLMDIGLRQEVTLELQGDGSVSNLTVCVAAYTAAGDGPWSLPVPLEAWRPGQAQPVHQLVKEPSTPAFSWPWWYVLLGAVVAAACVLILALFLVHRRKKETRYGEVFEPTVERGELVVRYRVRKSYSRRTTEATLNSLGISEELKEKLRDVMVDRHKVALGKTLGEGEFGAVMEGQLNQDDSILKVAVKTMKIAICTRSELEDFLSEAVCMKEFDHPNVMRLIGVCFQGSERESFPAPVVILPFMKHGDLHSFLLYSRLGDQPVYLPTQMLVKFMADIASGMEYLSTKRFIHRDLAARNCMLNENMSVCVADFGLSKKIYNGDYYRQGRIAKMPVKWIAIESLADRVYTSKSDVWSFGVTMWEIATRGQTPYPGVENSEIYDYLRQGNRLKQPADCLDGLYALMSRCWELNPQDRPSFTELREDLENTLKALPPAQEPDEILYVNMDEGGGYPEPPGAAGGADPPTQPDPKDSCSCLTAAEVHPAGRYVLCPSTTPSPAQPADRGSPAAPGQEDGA
Assay: Phospho-Akt in-cell Western assay (inhibition of Axl activity)
Type: cell-based
Outline: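 HeLa cells on poly-L-lysine, starved 24 h in 0.5% FCS DMEM with Axl/Fc 500 ng/mL, pre-treated with compound 1 h at 37° C. Axl stimulated 5 min by anti-Axl/anti-mouse antibody cross-linking. Fixed cells probed with anti-phospho-Akt and HRP secondary, chemiluminescence read.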

[1] = Table 2, Hela cells, Axl antibody cross-linking stimulation, phospho-Akt chemiluminescence
[2] = Table 5, Hela cells, Axl antibody cross-linking stimulation, phospho-Akt chemiluminescence
[3] = inhibition of Axl activity, Table 1
[4] = inhibition of Axl activity, phospho-Akt in-cell Western assay, Table 1
[5] = Table 3, Hela cells, Axl antibody cross-linking stimulation, phospho-Akt chemiluminescence
[6] = Table 9, Hela cells, Axl antibody cross-linking stimulation, phospho-Akt chemiluminescence
[7] = Table 7, Hela cells, Axl antibody cross-linking stimulation, phospho-Akt chemiluminescence

Compound: Cc1ccc(C(=O)n2nc(N)nc2Nc2ccc(OC(C)C)cc2)cc1 [compound 56, 3-amino-5-[4-(iso-propoxy)phenylamino]-1-(4-(methyl)phenyl)carbonyl-1H-1,2,4-triazole]
- IC50 [1]: > 20 µM

Compound: Cc1cccc(C(=O)n2nc(Nc3ccc4c(c3)NC(=O)CO4)nc2N)c1 [compound 161, 5-amino-3-(benzo[b][1,4]oxazin-3(4H)-on-6-yl)amino-1-(3-(methyl)phenyl)carbonyl-1H-1,2,4-triazole]
- IC50 [2]: > 20 µM

Compound: CC(C)Oc1ccc(C(=O)n2nc(Nc3ccc(N4CCOCC4)cc3)nc2N)cc1 [compound 48, 5-amino-1-(4-(iso-propoxy)phenyl)carbonyl-3-(4-(morpholin-4-yl)phenylamino]-1H-1,2,4-triazole]
- IC50 [3]: < 1 µM

Compound: CC(C)(C)Oc1cccc(C(=O)n2nc(Nc3ccc(OCCCN4CCCC4)cc3)nc2N)c1 [compound #24, 5-Amino-3-[4-[3-(pyrrolidin-1-yl)propoxy]phenylamino]-1-(3-(tert-butoxy)phenyl)carbonyl-1H-1,2,4-triazole]
- IC50 [4]: < 1 µM

Compound: Nc1nc(Nc2ccc(OCCN3CC[C@H](F)C3)cc2)n(C(=O)c2ccc3c(c2)OCCO3)n1 [compound 387, 3-amino-1-(1,4-benzodioxan-6-yl)carbonyl-5-[4-[2-((S)-3-fluoropyrrolidin-1-yl)ethoxy]phenylamino]-1H-1,2,4-triazole]
- IC50 (Table 4, Hela cells, Axl antibody cross-linking stimulation, phospho-Akt chemiluminescence): < 1 µM

Compound: COC(=O)COc1cccc(Nc2nc(N)n(C(=O)c3cccc(C)c3)n2)c1 [compound 147, 5-amino-3-[3-(methoxycarbonylmethoxy)phenylamino]-1-(3-(methyl)phenyl)carbonyl-1H-1,2,4-triazole]
- IC50 [3]: 1 to 10 µM

Compound: Nc1nc(Nc2ccc(OCCN3CCCC3)cc2)nn1C(=O)c1ccc2c(c1)OCO2 [compound #16, 5-Amino-1-(1,3-benzodioxol-5-yl)carbonyl-3-[4-[2-(pyrrolidin-1-yl)ethoxy]phenylamino]-1H-1,2,4-triazole]
- IC50 [4]: < 1 µM

Compound: CC(C)(C)Oc1cccc(C(=O)n2nc(NC3C4C=CC(C4)C3C(N)=O)nc2N)c1 (stereo not drawn) [compound 348, 5-amino-1-(3-(tert-butoxy)phenyl)carbonyl-3-[(5-(aminocarbonyl)bicyclo[2.2.1]hept-2-en-6-yl)amino]-1H-1,2,4-triazole]
- IC50 [2]: > 20 µM

Compound: CC(=O)N(C)c1ccc(Nc2nc(N)nn2C(=O)NC2CCCC2)cc1 [compound 178, 5-[4-(acetyl(methyl)amino)phenyl]amino-3-amino-N-cyclopentyl-1H-1,2,4-triazole-1-carboxamide]
- IC50 (Table 8, Hela cells, Axl antibody cross-linking stimulation, phospho-Akt chemiluminescence): > 20 µM

Compound: CNc1ccc(C(=O)n2nc(Nc3ccc(OCCN4CCCC4)cc3)nc2N)cc1 [compound 286, 5-amino-1-(4-(methylamino)phenyl)carbonyl-3-[4-[2-(pyrrolidin-1-yl)ethoxy]phenylamino]-1H-1,2,4-triazole]
- IC50 [4]: < 1 µM

Compound: Nc1nc(Nc2ccc(OCCN3CCCC3)cc2)nn1C(=O)c1cc2ccccc2[nH]1 [compound #6, 5-Amino-1-(1H-indol-2-yl)carbonyl-3-[4-[2-(pyrrolidin-1-yl)ethoxy]phenylamino]-1H-1,2,4-triazole]
- IC50 [5]: < 1 µM

Compound: NC(=O)C1C2C=CC(C2)C1Nc1nc(N)n(C(=O)c2ccc3cc[nH]c3c2)n1 (stereo not drawn) [compound 356, 5-amino-1-(1H-indol-6-yl)carbonyl-3-[(5-(aminocarbonyl)bicyclo[2.2.1]hept-2-en-6-yl)amino]-1H-1,2,4-triazole]
- IC50 [6]: > 20 µM

Compound: CC(C)Oc1ccc(Nc2nc(N)n(C(=O)c3cccc(Cl)c3)n2)cc1 [compound 76, 5-amino-1-(3-(chloro)phenyl)carbonyl-3-[4-(iso-propoxy)phenylamino]-1H-1,2,4-triazole]
- IC50 [3]: > 20 µM

Compound: CC(C)c1ccc(NC(=O)n2nc(Nc3ccc(OCCN4CCCCC4)cc3)nc2N)cc1 [compound 41, 5-amino-N-(4-(iso-propyl)phenyl)-3-[4-[2-(piperidin-1-yl)ethoxy]phenylamino]-1H-1,2,4-triazole-1-carboxamide]
- IC50 [7]: 1 to 10 µM

Compound: Cc1cccc(C(=O)n2nc(Nc3ccc4c(c3)OCCO4)nc2N)c1 [compound 96, 5-amino-3-(1,4-benzodioxan-6-yl)amino-1-(3-(methyl)phenyl)carbonyl-1H-1,2,4-triazole]
- IC50 [3]: 1 to 10 µM

Compound: Cc1ccc(NC(=O)n2nc(Nc3ccc(OCCN4CCCCC4)cc3)nc2N)cc1 [compound 39, 5-amino-N-(4-methylphenyl)-3-[4-[2-(piperidin-1-yl)ethoxy]phenylamino]-1H-1,2,4-triazole-1-carboxamide]
- IC50 [7]: 1 to 10 µM

Compound: Nc1nc(Nc2ccccc2)nn1C(=O)c1ccc(-c2csnn2)cc1 [compound 334, 5-amino-1-(4-(1,2,3-thiadiazol-4-yl)phenyl)carbonyl-3-(phenylamino)-1H-1,2,4-triazole]
- IC50 [4]: > 20 µM

Compound: Nc1nc(Nc2cccc(OCCN3CCOCC3)c2)nn1C(=O)c1ccccc1 [(Ia-26), 5-amino-3-[3-[2-(morpholin-4-yl)ethoxy]phenylamino]-1-phenylcarbonyl-1H-1,2,4-triazole, hydrogen chloride salt]
- IC50 [3]: > 20 µM

Compound: COc1ccc(NC(=O)n2nc(Nc3ccc(OCCN4CCCCC4)cc3)nc2N)cc1 [compound 40, 5-amino-N-(4-(methoxy)phenyl)-3-[4-[2-(piperidin-1-yl)ethoxy]phenylamino]-1H-1,2,4-triazole-1-carboxamide]
- IC50 [7]: 1 to 10 µM

Compound: CC(C)(C)Oc1ccc(C(=O)n2nc(Nc3ccc(OCCN4CC[C@H](F)C4)cc3)nc2N)cc1 [compound 384, 5-amino-1-(4-(tert-butoxy)phenyl)carbonyl-3-[4-[2-((S)-3-fluoropyrrolidin-1-yl)ethoxy]phenylamino]-1H-1,2,4-triazole]
- IC50 [4]: < 1 µM

Compound: Cc1ccc(C(=O)n2nc(Nc3cccc(C)c3)nc2N)cc1 [compound 133, 5-amino-3-[3-(methyl)phenylamino]-1-(4-(methyl)phenyl)carbonyl-1H-1,2,4-triazole]
- IC50 [3]: 1 to 10 µM

Compound: CC(C)Oc1ccc(C(=O)n2nc(Nc3ccc(OCC(F)(F)F)cc3)nc2N)cc1 [compound 152, 5-amino-1-(4-(iso-propoxy)phenyl)carbonyl-3-[4-(2,2,2-trifluoroethoxy)phenylamino]-1H-1,2,4-triazole]
- IC50 [3]: > 20 µM

Compound: CC(C)(C)Oc1ccc(C(=O)n2nc(Nc3ccc(N4CCCC4)cc3)nc2N)cc1 [compound 291, 5-amino-1-(4-(tert-butoxy)phenyl)carbonyl-3-[4-(pyrrolidin-1-yl)phenylamino]-1H-1,2,4-triazole]
- IC50 [4]: > 20 µM

Compound: CN1CCN(c2ccc(Nc3nc(N)nn3C(=O)c3ccc(N(C)C)cc3)cc2)CC1 [compound 362, 3-amino-1-(4-(dimethylamino)phenyl)carbonyl-5-(4-(4-methylpiperazin-1-yl)phenylamino]-1H-1,2,4-triazole]
- IC50 [1]: 1 to 10 µM

Compound: CC(C)(C)C(=O)Nc1ccc(C(=O)n2nc(Nc3ccc(OCCN4CCCC4)cc3)nc2N)cc1 [compound 290, 5-amino-1-(4-(tert-butylcarbonylamino)phenyl)carbonyl-3-[4-[2-(pyrrolidin-1-yl)ethoxy]phenylamino]-1H-1,2,4-triazole]
- IC50 [4]: 10 to 20 µM

Compound: Nc1nc(Nc2ccc(OCCN3CCCCC3)cc2)nn1C(=O)Nc1ccc2c(c1)OCO2 [compound 35, 5-amino-N-(1,3-benzodioxol-5-yl)-3-[4-[2-(piperidin-1-yl)ethoxy]phenylamino]-1H-1,2,4-triazole-1-carboxamide]
- IC50 [7]: 1 to 10 µM

Compound: COc1ccc(C(=O)n2nc(Nc3ccc4c(c3)OCCO4)nc2N)cc1C [compound 257, 5-amino-3-(1,4-benzodioxan-6-yl)amino-1-(3-methyl-4-methoxy)phenylcarbonyl-1H-1,2,4-triazole]
- IC50 [3]: 1 to 10 µM

Compound: Cc1cccc(C(=O)n2nc(Nc3cccc(OCC(=O)NCC4COC(C)(C)O4)c3)nc2N)c1 (stereo not drawn) [compound 148]
- IC50 [3]: 1 to 10 µM

Compound: Nc1nc(Nc2ccc(OCCN3CCCC3)cc2)nn1C(=O)C1CC2CCC1C2 (stereo not drawn) [compound 200, 5-amino-1-[2-(bicyclo[2.2.1]heptane)carbonyl]-3-[4-[2-(pyrrolidin-1-yl)ethoxy]phenylamino]-1H-1,2,4-triazole]
- IC50 [5]: > 20 µM

Compound: CS(=O)(=O)N1CCC(Nc2nc(N)n(C(=O)c3ccc4c(c3)OCCO4)n2)CC1 [compound 397, 5-amino-1-(1,4-benzodioxan-6-yl)carbonyl-3-(1-methylsulfonylpiperidin-4-yl)amino-1H-1,2,4-triazole]
- IC50 [6]: > 20 µM
